Measurements taken from US12679832B2, “Compounds and their uses as CD38 inhibitors” (Nanjing Immunophage Biotech Co., Ltd., priority 2021, dated 2026).

Biological target: T1, hCD38 Enzyme (Homo sapiens, UniProt P28907)
T1 construct: purchased Sino Biological Inc 10818-H08H
T1 sequence (P28907 43-300 limits assumed): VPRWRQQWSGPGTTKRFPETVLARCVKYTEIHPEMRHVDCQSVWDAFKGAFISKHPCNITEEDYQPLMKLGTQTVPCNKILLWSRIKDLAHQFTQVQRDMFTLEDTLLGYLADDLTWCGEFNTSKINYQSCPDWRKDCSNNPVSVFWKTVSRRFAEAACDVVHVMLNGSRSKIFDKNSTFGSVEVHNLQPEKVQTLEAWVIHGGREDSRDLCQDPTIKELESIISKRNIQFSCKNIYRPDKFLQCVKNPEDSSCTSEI
Assay: CD38 hydrolase enzymatic assay
Type: biochemical
Details: rhCD38, ε-NAD substrate, 25° C., point reading time 20 mins; read-out: hCD38 Enzyme inhibition IC50
Description: Also, a blank sample was prepared with 50 μl of sucrose buffer and no test compounds.
The dynamic reading was performed at 25° C. with excitation light of 300 nm and emission light of 410 nm on the enzyme marker by contacting the above-prepared rhCD38 enzyme working fluid and the above-prepared solutions of the test compounds disclosed herein or the solution of the control. The readings were recorded for a total of 1 hour, and the data were analyzed with the point reading time of 20 mins.
Fluorescence was recorded by a microplate reader. Individual excel files containing fluorescence data were exported and the results were plotted against various drug concentrations and analyzed in GraphPad Prism 7.0 for concentration curve generation.

Row | IC50 | SMILES
1 | 34 nM | O=C(Nc1cccc(F)c1)c1nc(-n2ccnc2)ccc1C(F)(F)F [compound 159, N-(3-fluorophenyl)-6-(1H-imidazol-1-yl)-3-(trifluoromethyl) picolinamide]
2 | 3 nM | O=C(Nc1cccc(Cl)c1)c1cc(C(F)(F)F)nc(-n2ccnc2)n1 [compound 124, N-(3-chlorophenyl)-2-(1H-imidazol-1-yl)-6-(trifluoromethyl) pyrimidine-4-carboxamide]
3 | > 10000 nM | CO[C@H]1CC[C@H](NC(=O)c2ccc(C(F)(F)F)c(-n3ccnc3)n2)CC1 [compound 152, 6-(1H-imidazol-1-yl)-N-((1r,4r)-4-methoxycyclohexyl)-5-(trifluoromethyl) picolinamide]
4 | 3430 nM | CO[C@H]1CC[C@H](NC(=O)c2ccnc(-n3cccn3)n2)CC1 [compound 100, N-((1r,4r)-4-methoxycyclohexyl)-2-(1H-pyrazol-1-yl)pyrimidine-4-carboxamide]
5 | 9750 nM | CN1CCC(NC(=O)c2cncc(-n3ccnc3)n2)CC1 [compound 36, 6-(1H-imidazol-1-yl)-N-(1-methylpiperidin-4-yl)pyrazine-2-carboxamide]
6 | 3 nM | O=C(Nc1ccccc1)c1ccnc(-n2ccnc2)n1 [compound 82, 2-(1H-imidazol-1-yl)-N-phenylpyrimidine-4-carboxamide]
7 | 11 nM | CC(C)(O)c1ccc(NC(=O)c2cc(C(F)(F)F)nc(-n3ccnc3)n2)cc1F [Compound 180]
8 | 348 nM | O=C(NCC1CCCCC1)c1cncc(-n2ccnc2)n1 [compound 37, N-(cyclohexylmethyl)-6-(1H-imidazol-1-yl)pyrazine-2-carboxamide]
9 | 149 nM | O=C(NC1CCCCC1)c1cc(N2CCCCC2)cc(-n2ccnc2)n1 [compound 130, N-cyclohexyl-6-(1H-imidazol-1-yl)-4-(piperidin-1-yl)picolinamide]
10 | 3.8 nM | O=C(Nc1cccnc1)c1cc(C(F)(F)F)cc(-n2ccnc2)n1 [compound 191, 6-(1H-imidazol-1-yl)-N-(pyridin-3-yl)-4-(trifluoromethyl) picolinamide]
11 | > 10000 nM | CO[C@H]1CC[C@H](NC(=O)c2ccnc(-n3ccnc3C(F)(F)F)n2)CC1 [compound 154, N-((1r,4r)-4-methoxycyclohexyl)-2-(2-(trifluoromethyl)-1H-imidazol-1-yl) pyrimidine-4-carboxamide]
12 | 13 nM | O=C(Nc1ccccc1F)c1ccnc(-n2ccnc2)n1 [compound 84, N-(2-fluorophenyl)-2-(1H-imidazol-1-yl)pyrimidine-4-carboxamide]
13 | 46 nM | CO[C@H]1CC[C@H](NC(=O)c2cc(N3CCCCC3)nc(-n3ccnc3)n2)CC1 [compound 26, 2-(1H-imidazol-1-yl)-N-((1r,4r)-4-methoxycyclohexyl)-6-(piperidin-1-yl)pyrimidine-4-carboxamide]
14 | 70 nM | O=C(NC1CCCCC1)c1cccc(-n2ccnc2)n1 [compound 49, N-cyclohexyl-6-(1H-imidazol-1-yl)picolinamide]
15 | 8 nM | CO[C@H]1CC[C@H](NC(=O)c2cc(-n3ccnc3)nc(N)n2)CC1 [compound 21, 2-amino-6-(1H-imidazol-1-yl)-N-((1r,4r)-4-methoxycyclohexyl)pyrimidine-4-carboxamide]
16 | 29 nM | CO[C@H]1CC[C@H](NC(=O)c2cc(-n3ccnc3)cc(-n3ccnc3)n2)CC1 [compound 1, 4,6-di (1H-imidazol-1-yl)-N-((1r,4r)-4-methoxycyclohexyl)picolinamide]
17 | 13 nM | CO[C@H]1CC[C@H](NC(=O)c2nc(-n3ccnc3)cnc2N)CC1 [compound 41, 3-amino-6-(1H-imidazol-1-yl)-N-((1r,4r)-4-methoxycyclohexyl) pyrazine-2-carboxamide]

Row | IC50 | SMILES
18 | 37 nM | C[C@H]1CC[C@H](NC(=O)c2cc(C(F)(F)F)cc(-n3ccnc3)n2)CC1 [compound 158, 6-(1H-imidazol-1-yl)-N-((1r,4r)-4-methylcyclohexyl)-4-(trifluoromethyl) picolinamide]
19 | 30 nM | O=C(O)COc1ncc(NC(=O)c2cc(C(F)(F)F)nc(-n3ccnc3)n2)cn1 [compound 194, 2-((5-(2-(1H-imidazol-1-yl)-6-(trifluoromethyl)pyrimidine-4-carboxamido)pyrimidin-2-yl)oxy) acetic acid]
20 | > 10000 nM | O=C(Nc1cccc(F)c1)c1ccnc(-n2cccn2)n1 [compound 102, N-(3-fluorophenyl)-2-(1H-pyrazol-1-yl)pyrimidine-4-carboxamide]
21 | 2 nM | N#Cc1cc(C(=O)Nc2cccnc2)nc(-n2ccnc2)n1 [compound 186, 6-cyano-2-(1H-imidazol-1-yl)-N-(pyridin-3-yl)pyrimidine-4-carboxamide]
22 | 16 nM | O=C(NC1CCCCC1)c1ccnc(-n2ccnc2)n1 [compound 72, N-cyclohexyl-2-(1H-imidazol-1-yl)pyrimidine-4-carboxamide]
23 | 9 nM | CO[C@H]1CC[C@H](NC(=O)c2cc(Cl)cc(-n3ccnc3)n2)CC1 [compound 51, 4-chloro-6-(1H-imidazol-1-yl)-N-((1r,4r)-4-methoxycyclohexyl) picolinamide]
24 | 2.8 nM | O=C(Nc1ccncc1)c1cc(C(F)(F)F)cc(-n2ccnc2)n1 [compound 190, 6-(1H-imidazol-1-yl)-N-(pyridin-4-yl)-4-(trifluoromethyl) picolinamide]
25 | 225 nM | CC(NC(=O)c1cncc(-n2ccnc2)n1)C1CCCCC1 (stereo not drawn) [compound 39, N-(1-cyclohexylethyl)-6-(1H-imidazol-1-yl)pyrazine-2-carboxamide]
26 | 586 nM | COC(C)(C)c1cc(F)cc(NC(=O)c2cc(C(F)(F)F)nc(-n3ccnc3)n2)c1 [compound 179, N-(3-fluoro-5-(2-methoxypropan-2-yl)phenyl)-2-(1H-imidazol-1-yl)-6-(trifluoromethyl) pyrimidine-4-carboxamide]
27 | 456 nM | O=C(NCc1ccccc1)c1cncc(-n2ccnc2)n1 [compound 38, N-benzyl-6-(1H-imidazol-1-yl)pyrazine-2-carboxamide]
28 | 2710 nM | CO[C@H]1CC[C@H](NC(=O)c2cc(-n3ccnc3)cc(Cl)n2)CC1 [compound 2, 6-chloro-4-(1H-imidazol-1-yl)-N-((1r,4r)-4-methoxycyclohexyl)picolinamide]
29 | 73 nM | CO[C@H]1CC[C@H](NC(=O)c2nc(-n3ccnc3)ccc2O)CC1 [compound 71, 3-hydroxy-6-(1H-imidazol-1-yl)-N-((1r,4r)-4-methoxycyclohexyl) picolinamide]
30 | 1.7 nM | O=C(Nc1cccnc1)c1ccnc(-n2ccnc2)n1 [compound 66, 2-(1H-imidazol-1-yl)-N-(pyridin-3-yl)pyrimidine-4-carboxamide]
31 | 36 nM | CO[C@H]1CC[C@H](NC(=O)c2cc(C(F)(F)F)cc(-n3ccnc3)n2)CC1 [compound 53, 6-(1H-imidazol-1-yl)-N-((1r,4r)-4-methoxycyclohexyl)-4-(trifluoromethyl) picolinamide]
32 | 36 nM | O=C(Nc1cc(F)ccc1F)c1cc(N2CCCCC2)nc(-n2ccnc2)n1 [compound 135, N-(2,5-difluorophenyl)-2-(1H-imidazol-1-yl)-6-(piperidin-1-yl)pyrimidine-4-carboxamide]
33 | 20 nM | N#Cc1cncc(NC(=O)c2cc(C(F)(F)F)nc(-n3ccnc3)n2)c1 [compound 169, N-(5-cyanopyridin-3-yl)-2-(1H-imidazol-1-yl)-6-(trifluoromethyl) pyrimidine-4-carboxamide]
